Source: the supplement of paper PMC13380429

Legend:
Details in all cases: 72 h
[1] = tested on: HepG2; experiment: cell viability relative to DMSO; higher = less toxic
[2] = tested on: Vero E6; experiment: as above
[3] = tested on: Calu-3; experiment: as above
[4] = tested on: Caco-2; experiment: as above
[5] = tested on: U2OS; experiment: as above
[6] = tested on: HepG2; experiment: relative viability EC50 (midpoint between 100% and the lowest measured viability); higher = less toxic
[7] = tested on: Vero E6; experiment: as above
[8] = tested on: Calu-3; experiment: as above
[9] = tested on: Caco-2; experiment: as above
[10] = tested on: U2OS; experiment: as above
[11] = tested on: HepG2; experiment: drug sensitivity score (DSS) for viability; higher = more toxic; extreme values may be limits of the assay
[12] = tested on: Vero E6; experiment: as above
[13] = tested on: Calu-3; experiment: as above
[14] = tested on: Caco-2; experiment: as above
[15] = tested on: U2OS; experiment: as above

Nc1nc(=O)c2sc(=O)n([C@@H]3O[C@H](CO)[C@@H](O)[C@H]3O)c2[nH]1
cell viability ([1]; 1 nM): 91.6% | cell viability ([1]; 10 nM): 99.5% | cell viability ([1]; 100 nM): 107% | cell viability ([1]; 1000 nM): 107% | cell viability ([1]; 10000 nM): 97.2% | cell viability ([2]; 1 nM): 94.9% | cell viability ([2]; 10 nM): 98.7% | cell viability ([2]; 100 nM): 97% | cell viability ([2]; 1000 nM): 95.8% | cell viability ([2]; 10000 nM): 102% | cell viability ([3]; 1 nM): 94.2% | cell viability ([3]; 10 nM): 110% | cell viability ([3]; 100 nM): 97% | cell viability ([3]; 1000 nM): 95.3% | cell viability ([3]; 10000 nM): 97.5% | cell viability ([4]; 1 nM): 95.1% | cell viability ([4]; 10 nM): 90.6% | cell viability ([4]; 100 nM): 92.7% | cell viability ([4]; 1000 nM): 99.6% | cell viability ([4]; 10000 nM): 103% | cell viability ([5]; 1 nM): 97.2% | cell viability ([5]; 10 nM): 93.6% | cell viability ([5]; 100 nM): 95.4% | cell viability ([5]; 1000 nM): 102% | cell viability ([5]; 10000 nM): 102% | relative viability EC50 [6]: > 10 µM | relative viability EC50 [7]: > 10 µM | relative viability EC50 [8]: > 10 µM | relative viability EC50 [9]: > 10 µM | relative viability EC50 [10]: > 10 µM | drug sensitivity score [11]: 0 | drug sensitivity score [12]: 0 | drug sensitivity score [13]: 0 | drug sensitivity score [14]: 0 | drug sensitivity score [15]: 0

COc1ccn2ncc(-c3nc4[nH]nc(NC(=O)c5ccc(F)cc5)c4cc3F)c2c1 [CW-008]
cell viability ([1]; 1 nM): 109% | cell viability ([1]; 10 nM): 102% | cell viability ([1]; 100 nM): 95.2% | cell viability ([1]; 1000 nM): 101% | cell viability ([1]; 10000 nM): 93.1% | cell viability ([2]; 1 nM): 93.6% | cell viability ([2]; 10 nM): 98.5% | cell viability ([2]; 100 nM): 99.4% | cell viability ([2]; 1000 nM): 97% | cell viability ([2]; 10000 nM): 89.1% | cell viability ([3]; 1 nM): 109% | cell viability ([3]; 10 nM): 107% | cell viability ([3]; 100 nM): 113% | cell viability ([3]; 1000 nM): 97.8% | cell viability ([3]; 10000 nM): 97.2% | cell viability ([4]; 1 nM): 99.1% | cell viability ([4]; 10 nM): 92.5% | cell viability ([4]; 100 nM): 91.2% | cell viability ([4]; 1000 nM): 89.6% | cell viability ([4]; 10000 nM): 87.7% | relative viability EC50 [6]: > 10 µM | relative viability EC50 [7]: > 10 µM | relative viability EC50 [8]: > 10 µM | relative viability EC50 [9]: > 10 µM | drug sensitivity score [11]: 0 | drug sensitivity score [12]: 0.1 | drug sensitivity score [13]: 0 | drug sensitivity score [14]: 0.6

COc1ccc2[nH]c3c(-c4cccc5ccccc45)nccc3c2c1 [SP-141]
cell viability ([1]; 1 nM): 102% | cell viability ([1]; 10 nM): 101% | cell viability ([1]; 100 nM): 95.9% | cell viability ([1]; 1000 nM): 47.8% | cell viability ([1]; 10000 nM): 42.8% | cell viability ([2]; 1 nM): 95.5% | cell viability ([2]; 10 nM): 101% | cell viability ([2]; 100 nM): 97.8% | cell viability ([2]; 1000 nM): 39.1% | cell viability ([2]; 10000 nM): 29.2% | cell viability ([3]; 1 nM): 98.7% | cell viability ([3]; 10 nM): 106% | cell viability ([3]; 100 nM): 105% | cell viability ([3]; 1000 nM): 67.4% | cell viability ([3]; 10000 nM): 67.2% | cell viability ([4]; 1 nM): 91.8% | cell viability ([4]; 10 nM): 103% | cell viability ([4]; 100 nM): 99.2% | cell viability ([4]; 1000 nM): 60% | cell viability ([4]; 10000 nM): 39.5% | cell viability ([5]; 1 nM): 110% | cell viability ([5]; 10 nM): 109% | cell viability ([5]; 100 nM): 106% | cell viability ([5]; 1000 nM): 53.9% | cell viability ([5]; 10000 nM): 21.3% | relative viability EC50 [6]: 0.332 µM | relative viability EC50 [7]: 0.453 µM | relative viability EC50 [9]: 0.741 µM | relative viability EC50 [10]: 0.873 µM | drug sensitivity score [11]: 10.2 | drug sensitivity score [12]: 11.5 | drug sensitivity score [13]: 5.3 | drug sensitivity score [14]: 8.1 | drug sensitivity score [15]: 9.9

Cn1cnc([N+](=O)[O-])c1Sc1ncnc2[nH]cnc12 [azathioprine]
cell viability ([1]; 1 nM): 95.2% | cell viability ([1]; 10 nM): 89.7% | cell viability ([1]; 100 nM): 93% | cell viability ([1]; 1000 nM): 75.1% | cell viability ([1]; 10000 nM): 20% | cell viability ([2]; 1 nM): 94.2% | cell viability ([2]; 10 nM): 96.6% | cell viability ([2]; 100 nM): 94.8% | cell viability ([2]; 1000 nM): 96% | cell viability ([2]; 10000 nM): 82.7% | cell viability ([3]; 1 nM): 94.8% | cell viability ([3]; 10 nM): 93.6% | cell viability ([3]; 100 nM): 93.1% | cell viability ([3]; 1000 nM): 94.4% | cell viability ([3]; 10000 nM): 98.7% | cell viability ([4]; 1 nM): 110% | cell viability ([4]; 10 nM): 86.8% | cell viability ([4]; 100 nM): 93% | cell viability ([4]; 1000 nM): 92.7% | cell viability ([4]; 10000 nM): 92.9% | cell viability ([5]; 1 nM): 104% | cell viability ([5]; 10 nM): 97.9% | cell viability ([5]; 100 nM): 96.2% | cell viability ([5]; 1000 nM): 71.9% | cell viability ([5]; 10000 nM): 78.9% | relative viability EC50 [6]: 1.46 µM | relative viability EC50 [7]: > 10 µM | relative viability EC50 [8]: > 10 µM | relative viability EC50 [9]: > 10 µM | drug sensitivity score [11]: 7.7 | drug sensitivity score [12]: 0.7 | drug sensitivity score [13]: 0 | drug sensitivity score [14]: 0 | drug sensitivity score [15]: 5.2

C[C@H](N)[C@H](O)c1ccc(O)c(O)c1 [levonordefrin]
cell viability ([1]; 1 nM): 105% | cell viability ([1]; 10 nM): 105% | cell viability ([1]; 100 nM): 97% | cell viability ([1]; 1000 nM): 96.8% | cell viability ([1]; 10000 nM): 93.9% | cell viability ([2]; 1 nM): 109% | cell viability ([2]; 10 nM): 109% | cell viability ([2]; 100 nM): 103% | cell viability ([2]; 1000 nM): 108% | cell viability ([2]; 10000 nM): 91.9% | cell viability ([3]; 1 nM): 102% | cell viability ([3]; 10 nM): 96.8% | cell viability ([3]; 100 nM): 98% | cell viability ([3]; 1000 nM): 104% | cell viability ([3]; 10000 nM): 100% | cell viability ([4]; 1 nM): 97.8% | cell viability ([4]; 10 nM): 89.7% | cell viability ([4]; 100 nM): 96.8% | cell viability ([4]; 1000 nM): 88.6% | cell viability ([4]; 10000 nM): 93.8% | relative viability EC50 [6]: > 10 µM | relative viability EC50 [7]: > 10 µM | relative viability EC50 [8]: > 10 µM | relative viability EC50 [9]: > 10 µM | drug sensitivity score [11]: 0 | drug sensitivity score [12]: 0 | drug sensitivity score [13]: 0 | drug sensitivity score [14]: 0

CC(C)C[C@H](NC(=O)[C@@H]1CCCN1)C(=O)NCC(N)=O [prolylleucylglycinamide]
cell viability ([1]; 1 nM): 109% | cell viability ([1]; 10 nM): 107% | cell viability ([1]; 100 nM): 107% | cell viability ([1]; 1000 nM): 99.2% | cell viability ([1]; 10000 nM): 107% | cell viability ([2]; 1 nM): 102% | cell viability ([2]; 10 nM): 105% | cell viability ([2]; 100 nM): 102% | cell viability ([2]; 1000 nM): 103% | cell viability ([2]; 10000 nM): 98.2% | cell viability ([3]; 1 nM): 97.1% | cell viability ([3]; 10 nM): 96.3% | cell viability ([3]; 100 nM): 99.4% | cell viability ([3]; 1000 nM): 106% | cell viability ([3]; 10000 nM): 104% | cell viability ([4]; 1 nM): 95% | cell viability ([4]; 10 nM): 95.1% | cell viability ([4]; 100 nM): 98.1% | cell viability ([4]; 1000 nM): 96% | cell viability ([4]; 10000 nM): 96.6% | relative viability EC50 [6]: > 10 µM | relative viability EC50 [7]: > 10 µM | relative viability EC50 [8]: > 10 µM | relative viability EC50 [9]: > 10 µM | drug sensitivity score [11]: 0 | drug sensitivity score [12]: 0 | drug sensitivity score [13]: 0 | drug sensitivity score [14]: 0

CCN(CC)CCNC(=O)c1cc(S(C)(=O)=O)ccc1OC [tiapride]
cell viability ([1]; 1 nM): 102% | cell viability ([1]; 10 nM): 103% | cell viability ([1]; 100 nM): 94.2% | cell viability ([1]; 1000 nM): 103% | cell viability ([1]; 10000 nM): 97.5% | cell viability ([2]; 1 nM): 99.9% | cell viability ([2]; 10 nM): 100% | cell viability ([2]; 100 nM): 103% | cell viability ([2]; 1000 nM): 99.5% | cell viability ([2]; 10000 nM): 104% | cell viability ([3]; 1 nM): 97.5% | cell viability ([3]; 10 nM): 89.2% | cell viability ([3]; 100 nM): 101% | cell viability ([3]; 1000 nM): 106% | cell viability ([3]; 10000 nM): 100% | cell viability ([4]; 1 nM): 104% | cell viability ([4]; 10 nM): 93.5% | cell viability ([4]; 100 nM): 95.9% | cell viability ([4]; 1000 nM): 100% | cell viability ([4]; 10000 nM): 101% | relative viability EC50 [6]: > 10 µM | relative viability EC50 [7]: > 10 µM | relative viability EC50 [8]: > 10 µM | relative viability EC50 [9]: > 10 µM | drug sensitivity score [11]: 0 | drug sensitivity score [12]: 0 | drug sensitivity score [13]: 0 | drug sensitivity score [14]: 0
